Results on twelve compounds are retold here after ChEMBL document CHEMBL5226338, “Molecular hybrids: A five-year survey on structures of multiple targeted hybrids of protein kinase inhibitors for cancer therapy” (Eur J Med Chem, 2021).

Molecules are shown by their SMILES. pIC50: −log10 of the molar value.

The term pIC50 denotes −log10 of the IC50, conventionally taken in molar units. Usually inhibition stands for the change of the read-out against control, counted positive when it falls. By IC50 is commonly meant the midpoint of a concentration-inhibition curve. A higher IC50 goes with weaker potency.

Test [1] concerns HepG2. In words: Cytotoxicity against human HepG2 cells assessed as inhibition of cell growth incubated for 24 hrs by MTT assay. The following applies: HepG2, 24 h. In kind it is functional, cell-based. A general note: Tetrazolium assays rely on reduction of a dye to a coloured formazan, in cell work by metabolically active cells.
In test [2] the target is T1, Epidermal growth factor receptor (Homo sapiens, UniProt P00533). In words: Inhibition of GST-fused EGFR (unknown origin) in presence of ATP by microplate reader analysis.
Test [3] deals with Tubulin. As to the kind of experiment: Inhibition of tubulin (unknown origin) polymerization. It is filed as protein-complex assay, Homo sapiens.
Test [4] addresses T1, Epidermal growth factor receptor. As to the kind of experiment: Inhibition of EGFR (unknown origin).
For test [5], the target named is T2, Vascular endothelial growth factor receptor 2 (Homo sapiens, UniProt P35968). As to the kind of experiment: Inhibition of VEGFR2 (unknown origin) using biotin-gastrin precursor (Tyr87) peptide as substrate incubated for 1 hr in presence of ATP by spectrophotometric analysis relative to sorafenib. The following applies: concentration not given here.
The target in test [6] is T1, Epidermal growth factor receptor. In words: Inhibition of EGFR (unknown origin) using poly (Glu,Tyr) 4:1 as substrate incubated for 1 hr in presence of ATP by spectrophotometric analysis relative to sorafenib. The settings on record: concentration not given here.
The target of test [7] is DNA topoisomerase 1 (Homo sapiens, UniProt P11387). As to the kind of experiment: Inhibition of human DNA topoisomerase 1 incubated for 2 hrs by ELISA. (ELISA stands for enzyme-linked immunosorbent assay.)
For test [8], the target named is Tubulin beta. As to the kind of experiment: Inhibition of beta-tubulin polymerization (unknown origin) by ELISA. In kind it is protein assay, Homo sapiens.
In test [9] the target is Tubulin beta. As to the kind of experiment: Inhibition of beta-tubulin polymerization (unknown origin) measured every 3 secs for 1 hr by spectrofluorometer. In kind it is protein assay, Homo sapiens.
The target of test [10] is T1, Epidermal growth factor receptor. In words: Inhibition of EGFR (unknown origin) phosphorylation by ELISA.
Test [11] concerns MDA-MB-231. In words: Cytotoxicity against human MDA-MB-231 cells assessed as inhibition of cell growth incubated for 24 hrs by MTT assay. In kind it is functional, cell-based. The settings on record: MDA-MB-231, 24 h.
For test [12], the target named is Tubulin. As to the kind of experiment: Inhibition of MAP-rich tubulin (unknown origin) polymerization. In kind it is protein-complex assay, Homo sapiens.
Test [13] concerns MCF7. In words: Cytotoxicity against human MCF7 cells assessed as inhibition of cell growth incubated for 24 hrs by MTT assay. It is filed as functional, cell-based. The settings on record: MCF7, 24 h.
The nature of test [14]: Cytotoxicity against human U87 cells. In kind it is functional, cell-based, U-87MG ATCC. The settings on record: U-87 MG.
The target in test [15] is Tubulin beta (Homo sapiens) (UniProt P68371+Q9H4B7+Q13509+P04350+Q3ZCM7+P07437+Q13885+Q9BVA1+Q9BUF5+A6NNZ2). As to the kind of experiment: Inhibition of beta-tubulin polymerization in human HepG2 cells using TMB substrate by spectrophotometry analysis relative to control. The following applies: concentration not given here. In kind it is cell-based.
The target in test [16] is T2, Vascular endothelial growth factor receptor 2. In words: Inhibition of human VEGFR2 using TMB as substrate by ELISA.
For test [17], the target named is Tubulin beta. In words: Inhibition of beta-tubulin polymerization in human HCT-116 cells using TMB substrate by ELISA. In kind it is cell-based.
In test [18] the target is [Pyruvate dehydrogenase (acetyl-transferring)] kinase isozyme 1, mitochondrial (Homo sapiens, UniProt Q15118). In words: Inhibition of human recombinant PDHK1 using KKKYHGHSMSDPGVSYRT as substrate incubated for 40 mins in presence of Mg/ATP mix by [gamma-32P]-ATP based scintillation counting analysis.
A short description of test [19]: Inhibition of sheep brain tubulin polymerization by DAPI staining based fluorescence analysis. It is filed as tissue-based, Ovis aries.
In test [20] the target is Histone deacetylase 1 (Homo sapiens, UniProt Q13547). As to the kind of experiment: Inhibition of recombinant HDAC1 (unknown origin) using Fluor-de-Lys as substrate incubated for 10 mins by fluorescence based analysis.
For test [21], the target named is Serine/threonine-protein kinase B-raf (Homo sapiens, UniProt P15056, V600E). In words: Inhibition of full length human BRAF V600E mutant using His-tagged full length human MEK1 (K97R) as substrate incubated for 20 mins by [gamma-33P]ATP based filter-binding method.
Sequence of Serine/threonine-protein kinase B-raf (P15056 2-766 V600E limits assumed): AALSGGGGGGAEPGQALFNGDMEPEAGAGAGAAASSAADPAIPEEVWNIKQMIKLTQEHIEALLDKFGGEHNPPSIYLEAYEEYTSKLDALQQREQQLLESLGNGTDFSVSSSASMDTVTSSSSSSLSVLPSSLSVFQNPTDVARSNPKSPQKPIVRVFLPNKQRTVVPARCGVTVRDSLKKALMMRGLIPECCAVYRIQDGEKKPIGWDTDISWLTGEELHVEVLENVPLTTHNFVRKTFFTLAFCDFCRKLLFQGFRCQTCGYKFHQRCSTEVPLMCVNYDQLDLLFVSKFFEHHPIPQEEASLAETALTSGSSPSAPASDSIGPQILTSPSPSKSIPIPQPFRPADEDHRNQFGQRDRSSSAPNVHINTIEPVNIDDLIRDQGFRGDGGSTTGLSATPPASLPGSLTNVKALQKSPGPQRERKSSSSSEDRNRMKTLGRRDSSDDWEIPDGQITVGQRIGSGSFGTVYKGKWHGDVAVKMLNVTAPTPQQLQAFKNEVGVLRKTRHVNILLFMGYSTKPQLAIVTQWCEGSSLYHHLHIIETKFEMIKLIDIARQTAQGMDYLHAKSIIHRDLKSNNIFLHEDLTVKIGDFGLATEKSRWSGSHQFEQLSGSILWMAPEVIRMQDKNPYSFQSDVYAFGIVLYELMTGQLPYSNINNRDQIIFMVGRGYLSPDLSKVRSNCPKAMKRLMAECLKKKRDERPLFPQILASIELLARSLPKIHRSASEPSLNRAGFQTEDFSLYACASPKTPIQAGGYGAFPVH

T2 sequence (P35968 whole entry): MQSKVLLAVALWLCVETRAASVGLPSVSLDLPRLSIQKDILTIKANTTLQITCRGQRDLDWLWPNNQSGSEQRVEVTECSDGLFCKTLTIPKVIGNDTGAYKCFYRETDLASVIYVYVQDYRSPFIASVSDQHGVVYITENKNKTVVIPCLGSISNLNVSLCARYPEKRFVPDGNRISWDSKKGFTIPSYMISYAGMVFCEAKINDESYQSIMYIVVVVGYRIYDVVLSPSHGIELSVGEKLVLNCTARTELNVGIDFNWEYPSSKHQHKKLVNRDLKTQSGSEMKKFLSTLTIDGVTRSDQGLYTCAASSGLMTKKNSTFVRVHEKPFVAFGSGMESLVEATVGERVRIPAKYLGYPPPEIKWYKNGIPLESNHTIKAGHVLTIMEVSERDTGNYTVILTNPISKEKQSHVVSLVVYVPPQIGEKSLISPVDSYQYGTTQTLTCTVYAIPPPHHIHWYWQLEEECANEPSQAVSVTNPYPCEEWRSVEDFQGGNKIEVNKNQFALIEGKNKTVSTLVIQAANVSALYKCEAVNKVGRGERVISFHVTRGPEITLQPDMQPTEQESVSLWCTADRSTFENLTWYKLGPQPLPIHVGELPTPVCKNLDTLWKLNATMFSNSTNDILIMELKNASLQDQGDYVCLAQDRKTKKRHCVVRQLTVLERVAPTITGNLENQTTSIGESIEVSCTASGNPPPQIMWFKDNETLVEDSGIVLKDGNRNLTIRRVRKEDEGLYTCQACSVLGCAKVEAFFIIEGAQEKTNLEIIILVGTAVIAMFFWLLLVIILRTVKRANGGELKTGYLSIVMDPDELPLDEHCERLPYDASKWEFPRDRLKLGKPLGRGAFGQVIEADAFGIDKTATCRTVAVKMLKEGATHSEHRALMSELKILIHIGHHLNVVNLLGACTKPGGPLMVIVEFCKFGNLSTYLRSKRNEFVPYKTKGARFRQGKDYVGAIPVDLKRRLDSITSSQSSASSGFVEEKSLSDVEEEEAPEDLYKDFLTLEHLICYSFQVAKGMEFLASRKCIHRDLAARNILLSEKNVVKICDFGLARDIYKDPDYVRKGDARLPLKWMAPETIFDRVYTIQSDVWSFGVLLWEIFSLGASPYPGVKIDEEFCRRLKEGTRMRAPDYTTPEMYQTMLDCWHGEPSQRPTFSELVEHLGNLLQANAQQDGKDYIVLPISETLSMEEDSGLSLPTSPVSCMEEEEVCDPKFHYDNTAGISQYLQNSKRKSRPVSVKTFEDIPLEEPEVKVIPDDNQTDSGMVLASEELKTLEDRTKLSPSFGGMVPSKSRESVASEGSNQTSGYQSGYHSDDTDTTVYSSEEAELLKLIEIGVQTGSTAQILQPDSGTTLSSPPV
T1 sequence (P00533 whole entry, the tested form may be a part): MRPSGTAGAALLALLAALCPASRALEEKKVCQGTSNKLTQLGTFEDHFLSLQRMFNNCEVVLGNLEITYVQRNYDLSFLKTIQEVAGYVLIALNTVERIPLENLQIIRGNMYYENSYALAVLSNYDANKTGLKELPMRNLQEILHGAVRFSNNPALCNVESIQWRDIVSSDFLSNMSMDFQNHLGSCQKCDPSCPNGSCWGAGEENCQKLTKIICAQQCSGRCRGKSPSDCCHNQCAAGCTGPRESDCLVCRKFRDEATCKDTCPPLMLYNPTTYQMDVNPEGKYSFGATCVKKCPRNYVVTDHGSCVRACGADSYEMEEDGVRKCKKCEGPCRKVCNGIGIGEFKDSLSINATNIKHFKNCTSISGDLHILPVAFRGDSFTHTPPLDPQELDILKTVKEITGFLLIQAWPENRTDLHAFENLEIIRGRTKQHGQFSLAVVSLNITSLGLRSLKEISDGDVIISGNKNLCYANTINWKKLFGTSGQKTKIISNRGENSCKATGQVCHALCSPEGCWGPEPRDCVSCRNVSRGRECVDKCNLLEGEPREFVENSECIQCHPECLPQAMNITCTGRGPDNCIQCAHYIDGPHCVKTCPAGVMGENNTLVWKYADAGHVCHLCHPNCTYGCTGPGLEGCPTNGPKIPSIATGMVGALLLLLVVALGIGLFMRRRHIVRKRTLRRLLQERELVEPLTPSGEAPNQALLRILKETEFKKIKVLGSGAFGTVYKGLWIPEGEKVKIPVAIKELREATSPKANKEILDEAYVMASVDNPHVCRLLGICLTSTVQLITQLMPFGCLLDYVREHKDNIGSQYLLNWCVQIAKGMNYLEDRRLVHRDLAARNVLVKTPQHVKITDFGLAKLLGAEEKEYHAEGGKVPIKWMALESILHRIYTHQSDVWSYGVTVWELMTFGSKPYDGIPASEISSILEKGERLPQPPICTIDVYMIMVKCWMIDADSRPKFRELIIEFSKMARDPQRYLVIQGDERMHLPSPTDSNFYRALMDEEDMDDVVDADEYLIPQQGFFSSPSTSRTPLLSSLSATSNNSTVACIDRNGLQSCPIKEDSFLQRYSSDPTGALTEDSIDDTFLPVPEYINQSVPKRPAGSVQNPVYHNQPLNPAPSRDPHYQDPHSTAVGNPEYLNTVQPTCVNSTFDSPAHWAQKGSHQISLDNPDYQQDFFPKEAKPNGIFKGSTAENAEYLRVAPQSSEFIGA
Sequence of Histone deacetylase 1 (Q13547 whole entry): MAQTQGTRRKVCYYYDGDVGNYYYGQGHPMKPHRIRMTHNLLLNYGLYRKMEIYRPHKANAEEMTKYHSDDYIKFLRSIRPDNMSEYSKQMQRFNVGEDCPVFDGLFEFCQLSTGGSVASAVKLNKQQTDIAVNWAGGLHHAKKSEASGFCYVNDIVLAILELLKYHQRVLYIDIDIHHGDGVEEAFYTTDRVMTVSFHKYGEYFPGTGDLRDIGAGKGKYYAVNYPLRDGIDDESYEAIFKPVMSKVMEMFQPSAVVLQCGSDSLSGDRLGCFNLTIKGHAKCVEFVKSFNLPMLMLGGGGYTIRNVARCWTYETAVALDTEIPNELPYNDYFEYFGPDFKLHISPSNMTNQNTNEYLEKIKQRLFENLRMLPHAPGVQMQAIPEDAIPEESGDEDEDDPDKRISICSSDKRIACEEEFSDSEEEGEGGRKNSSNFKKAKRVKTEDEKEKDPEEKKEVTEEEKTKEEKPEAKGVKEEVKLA
Sequence of [Pyruvate dehydrogenase (acetyl-transferring)] kinase isozyme 1, mitochondrial (Q15118 whole entry): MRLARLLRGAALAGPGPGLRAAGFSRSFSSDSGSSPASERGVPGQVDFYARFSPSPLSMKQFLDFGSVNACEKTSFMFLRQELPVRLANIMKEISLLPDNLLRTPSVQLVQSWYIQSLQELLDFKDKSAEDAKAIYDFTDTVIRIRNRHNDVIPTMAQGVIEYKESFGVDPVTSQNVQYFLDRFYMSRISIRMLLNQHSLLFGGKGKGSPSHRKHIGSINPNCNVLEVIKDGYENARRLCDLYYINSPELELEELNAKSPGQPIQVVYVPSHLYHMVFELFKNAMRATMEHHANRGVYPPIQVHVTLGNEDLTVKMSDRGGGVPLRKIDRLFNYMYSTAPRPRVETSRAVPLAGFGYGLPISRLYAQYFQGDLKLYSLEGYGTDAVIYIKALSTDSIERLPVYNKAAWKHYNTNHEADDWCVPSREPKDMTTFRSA
Sequence of DNA topoisomerase 1 (P11387 whole entry): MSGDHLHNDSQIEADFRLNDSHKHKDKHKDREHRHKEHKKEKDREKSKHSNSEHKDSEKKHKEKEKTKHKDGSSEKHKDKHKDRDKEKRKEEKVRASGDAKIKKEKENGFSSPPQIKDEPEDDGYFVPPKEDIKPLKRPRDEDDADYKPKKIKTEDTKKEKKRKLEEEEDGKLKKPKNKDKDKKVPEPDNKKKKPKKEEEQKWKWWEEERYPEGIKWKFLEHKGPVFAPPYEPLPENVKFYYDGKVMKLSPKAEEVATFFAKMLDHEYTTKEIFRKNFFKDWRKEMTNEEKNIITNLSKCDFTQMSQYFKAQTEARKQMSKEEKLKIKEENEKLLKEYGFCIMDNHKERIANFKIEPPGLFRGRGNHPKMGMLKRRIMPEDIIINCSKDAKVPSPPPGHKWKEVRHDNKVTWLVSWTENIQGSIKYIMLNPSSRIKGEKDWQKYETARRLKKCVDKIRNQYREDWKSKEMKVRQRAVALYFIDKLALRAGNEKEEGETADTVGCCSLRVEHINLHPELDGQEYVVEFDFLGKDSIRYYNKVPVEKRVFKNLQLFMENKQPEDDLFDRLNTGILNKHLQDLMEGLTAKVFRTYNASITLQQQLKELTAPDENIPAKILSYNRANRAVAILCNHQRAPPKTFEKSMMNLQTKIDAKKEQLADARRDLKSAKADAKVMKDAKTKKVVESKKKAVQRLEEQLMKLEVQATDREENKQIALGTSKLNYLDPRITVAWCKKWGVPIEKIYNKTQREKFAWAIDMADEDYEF

Regarding `CCCOCCSc1nc(-c2ccccc2Cl)nn1CCOCCC`, the pIC50 is 5.89 in [1], 6.06 in [2] and 6.97 in test [3].
As for `CC(=O)O[C@H]1CC[C@]2(C)[C@H]3CC=C4[C@@H]5CC(C)(C)CC[C@]5(C(=O)OCCCC[N+](=O)[O-])CC[C@@]4(C)[C@]3(C)CC[C@H]2C1(C)CO` (stereo not given in full), the pIC50 in test [4] was 8.00.
In the case of `N#CC1=C(N)Oc2ccccc2C1c1cc2ccccc2n2nnnc12` (stereo not given), the figures for the inhibition in test [5] and in test [6] were 60% and 30%, respectively. The compound also had a pIC50 in test [7] of 6.56.
In test [8], `O=C(Nc1ccccc1C(=O)N/N=C/c1ccc(O)cc1O)c1ccco1` returned an IC50 of 108.4 nM.
For the compound `O=C(/C=C/c1ccc(F)cc1)c1cc(Br)cc2cc(-c3ccccc3)oc12`, the IC50 in [9] came out at 5510 nM. In [10], this compound showed a pIC50 of 7.05.
In the case of `Fc1ccc(C2=Nc3ccc(F)cc3CN2/N=C\c2ccccc2)cc1`, the pIC50 in test [11] was 6.55; in [2] it was 7.12; in [12], 5.03; in [13], 6.46.
Compound `C=C[C@]1(C)CC[C@@H](C(=C)COC(=O)CCC(=O)CCCOc2no[n+]([O-])c2S(=O)(=O)c2ccccc2)C[C@H]1C(=C)C` showed a pIC50 in test [14] of 8.70.
`COc1ccc(NC(=O)c2c(Nc3ccccc3)sc(C#N)c2NC(=O)CNc2ccc(Cl)cc2)cc1` displayed an inhibition in [15] of 73%. In test [16], this compound had a pIC50 of 6.23.
In the case of `CCc1nnc2c(Nc3ccc(C(=O)/C=C/c4cc(OC)c(OC)c(OC)c4)cc3)nc3ccccc3n12`, the pIC50 in test [2] was 7.03. The IC50 in [17] turned out to be 8400 nM.
In test [15], `COc1ccc(NC(=O)c2c(Nc3ccccc3)sc(C(=O)N/N=C/c3ccc(O)c(O)c3)c2NC(C)=O)cc1` came in with an inhibition of 86%. In addition, in test [16], the pIC50 is 5.89.
Consider `COc1ccc(C(=O)c2cc(OC)c(OC)c(OC)c2)cc1OC(=O)C(Cl)Cl`, for which the pIC50 in [18] was 4.92; in test [19] it was 6.59.
Take `COc1ccc(NC(=O)Nc2ccc(Oc3ccc(C(=O)c4ncc[nH]4)cc3)cc2)cc1`: the pIC50 is 6.20 in test [20] and 5.77 in test [21].
